Test system: SEM cells
Test: cell viability relative to DMSO control; higher = less cytotoxic
Conditions: 48 h
Summary of the method: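 Viability is expressed as a percentage of DMSO wells within each plate, and cell-free wells serve as background. Seeding densities in the 1536-well plates (5 μl) were 500 cells/well for NOMO1 or SEM leukemia cells and 1000 cells/well for P12-Ichikawa. Each line was adapted for at least four passages in each medium. Library compounds in DMSO were pin-dosed at 47 μM to 0.79 nM (11 points, threefold), and CellTiter-Glo One luminescence was read after 48 h at 37°C.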

[1] = HPLM + 10% dialyzed FBS, 0.000781 µM
[2] = HPLM + 10% dialyzed FBS, 0.00234 µM
[3] = HPLM + 10% dialyzed FBS, 0.00702 µM
[4] = HPLM + 10% dialyzed FBS, 0.0211 µM
[5] = HPLM + 10% dialyzed FBS, 0.0632 µM
[6] = HPLM + 10% dialyzed FBS, 0.19 µM
[7] = HPLM + 10% dialyzed FBS, 0.569 µM
[8] = HPLM + 10% dialyzed FBS, 1.71 µM
[9] = HPLM + 10% dialyzed FBS, 5.12 µM
[10] = HPLM + 10% dialyzed FBS, 15.4 µM
[11] = HPLM + 10% dialyzed FBS, 46.1 µM
[12] = RPMI 5 mM glucose + 10% FBS, 0.000781 µM
[13] = RPMI 5 mM glucose + 10% FBS, 0.00234 µM
[14] = RPMI 5 mM glucose + 10% FBS, 0.00702 µM
[15] = RPMI 5 mM glucose + 10% FBS, 0.0211 µM
[16] = RPMI 5 mM glucose + 10% FBS, 0.0632 µM
[17] = RPMI 5 mM glucose + 10% FBS, 0.19 µM
[18] = RPMI 5 mM glucose + 10% FBS, 0.569 µM
[19] = RPMI 5 mM glucose + 10% FBS, 1.71 µM
[20] = RPMI 5 mM glucose + 10% FBS, 5.12 µM
[21] = RPMI 5 mM glucose + 10% FBS, 15.4 µM
[22] = RPMI 5 mM glucose + 10% FBS, 46.1 µM
[23] = RPMI 5 mM glucose + 10% dialyzed FBS, 0.000781 µM
[24] = RPMI 5 mM glucose + 10% dialyzed FBS, 0.00234 µM
[25] = RPMI 5 mM glucose + 10% dialyzed FBS, 0.00702 µM
[26] = RPMI 5 mM glucose + 10% dialyzed FBS, 0.0211 µM
[27] = RPMI 5 mM glucose + 10% dialyzed FBS, 0.0632 µM
[28] = RPMI 5 mM glucose + 10% dialyzed FBS, 0.19 µM
[29] = RPMI 5 mM glucose + 10% dialyzed FBS, 0.569 µM
[30] = RPMI 5 mM glucose + 10% dialyzed FBS, 1.71 µM
[31] = RPMI 5 mM glucose + 10% dialyzed FBS, 5.12 µM
[32] = RPMI 5 mM glucose + 10% dialyzed FBS, 15.4 µM
[33] = RPMI 5 mM glucose + 10% dialyzed FBS, 46.1 µM

| SMILES | cell viability [1] [%] | cell viability [2] [%] | cell viability [3] [%] | cell viability [4] [%] | cell viability [5] [%] | cell viability [6] [%] | cell viability [7] [%] | cell viability [8] [%] | cell viability [9] [%] | cell viability [10] [%] | cell viability [11] [%] | cell viability [12] [%] | cell viability [13] [%] | cell viability [14] [%] | cell viability [15] [%] | cell viability [16] [%] | cell viability [17] [%] | cell viability [18] [%] | cell viability [19] [%] | cell viability [20] [%] | cell viability [21] [%] | cell viability [22] [%] | cell viability [23] [%] | cell viability [24] [%] | cell viability [25] [%] | cell viability [26] [%] | cell viability [27] [%] | cell viability [28] [%] | cell viability [29] [%] | cell viability [30] [%] | cell viability [31] [%] | cell viability [32] [%] | cell viability [33] [%] |
| --- | --- | --- | --- | --- | --- | --- | --- | --- | --- | --- | --- | --- | --- | --- | --- | --- | --- | --- | --- | --- | --- | --- | --- | --- | --- | --- | --- | --- | --- | --- | --- | --- | --- |
| Cc1cnc(Nc2ccc(N3CCN(C)CC3)cc2)nc1Nc1cccc([S+](=O)([O-])NC(C)(C)C)c1 | 110 | 110 | 118 | 114 | 116 | 94.9 | 85.1 | 27.2 | 7.39 | 2.61 | 3.12 | 116 | 113 | 107 | 114 | 104 | 90.2 | 77.8 | 22.8 | 5.43 | 2.59 | 3.4 | 106 | 105 | 119 | 110 | 101 | 88.4 | 97.9 | 26.2 | 7.58 | 2.94 | 3.71 |
| COc1ccc2[nH]cc(CCNC(C)=O)c2c1 | 91 | 110 | 113 | 116 | 127 | 114 | 114 | 101 | 103 | 117 | 106 | 112 | 123 | 124 | 124 | 117 | 114 | 124 | 102 | 110 | 123 | 119 | 121 | 131 | 114 | 144 | 125 | 113 | 120 | 104 | 100 | 124 | 113 |
| OC[C@H]1OC(OC2=CC3=C(C(=C2)O)C(=O)\C(=C/O3)C4=CC=C(O)C=C4)[C@H](O)[C@@H](O)[C@@H]1O (stereo partly specified) | 93.7 | 92.9 | 92 | 98.1 | 93 | 79.9 | 69.7 | 93.4 | 81.6 | 78.6 | 65.3 | 97.9 | 86.8 | 111 | 102 | 117 | 89.6 | 89 | 98 | 86.4 | 92.4 | 94.1 | 86.3 | 89.1 | 114 | 94.7 | 106 | 88.3 | 89.8 | 96.6 | 90.3 | 90.1 | 95.8 |
| C1CN\2C[C@@H](\N=C2S1)C3=CC=CC=C3 | 82.1 | 95 | 104 | 88.6 | 98.7 | 99.5 | 100 | 100 | 97.8 | 100 | 86.1 | 73.7 | 86.7 | 89.4 | 83.1 | 90.9 | 75.2 | 87.6 | 89.3 | 88 | 87.8 | 40.4 | 88.8 | 95.3 | 100 | 107 | 106 | 116 | 107 | 106 | 118 | 100 | 76.9 |
| N#CC[C@H](C1CCCC1)n1cc(-c2ncnc3[nH]ccc23)cn1 | 100 | 104 | 103 | 103 | 94.1 | 85.9 | 103 | 90.1 | 63.7 | 39.6 | 24.5 | 103 | 111 | 86.6 | 108 | 109 | 96.1 | 92.7 | 107 | 50 | 23 | 19.8 | 98.9 | 97.7 | 98.1 | 97.9 | 113 | 99.6 | 96.8 | 87.3 | 63.3 | 31.6 | 26.3 |
| C[C@@H](N)C1CC[C@@H](CC1)C(=O)NC2=CC=NC=C2 (stereo partly specified) | 91.8 | 117 | 107 | 108 | 103 | 106 | 129 | 129 | 119 | 122 | 120 | 94 | 99.3 | 99.8 | 90.3 | 103 | 108 | 112 | 115 | 104 | 109 | 113 | 93.7 | 107 | 111 | 121 | 117 | 114 | 131 | 120 | 114 | 116 | 114 |
| O=C(NCC1CCOCC1)c1cnc(Nc2ccc(Cl)cc2Cl)nc1C(F)(F)F | 89.6 | 98.1 | 99 | 67.7 | 108 | 103 | 106 | 102 | 99.5 | 114 | 117 | 95.9 | 103 | 108 | 61.9 | 99.1 | 100 | 99.7 | 103 | 99.1 | 105 | 98.5 | 94.2 | 97.8 | 108 | 67.9 | 121 | 119 | 113 | 112 | 91.7 | 123 | 101 |
| N#Cc1ccnc(N2C(=O)CC[C@H]2C(=O)N(c2cncc(F)c2)[C@H](C(=O)NC2CC(F)(F)C2)c2ccccc2Cl)c1 | 94.8 | 104 | 92.2 | 83.1 | 93.7 | 96.7 | 93.6 | 87.6 | 25.4 | 17.6 | 19.1 | 119 | 144 | 119 | 132 | 146 | 134 | 108 | 50.5 | 19.1 | 14.9 | 16.1 | 104 | 100 | 94.6 | 110 | 91.9 | 101 | 105 | 85.9 | 34 | 16.4 | 17.9 |
| CN(C)CCc1c[nH]c2ccc(C[S+](=O)([O-])N3CCCC3)cc12 | 78.9 | 97.3 | 91.4 | 104 | 97.1 | 97.5 | 94 | 109 | 97.8 | 86.8 | 83.6 | 83.9 | 93.4 | 85.7 | 93.7 | 101 | 104 | 96.8 | 101 | 87.2 | 60.5 | 67.4 | 87.5 | 96 | 91.5 | 98.4 | 107 | 96.2 | 88.5 | 96.7 | 84.4 | 77.2 | 65 |
| C[C@H]1Oc2cc(cnc2N)-c2c(nn(C)c2C#N)CN(C)C(=O)c2ccc(F)cc21 | 111 | 138 | 114 | 118 | 109 | 126 | 124 | 121 | 117 | 107 | 93.7 | 110 | 108 | 110 | 109 | 78.1 | 85.3 | 102 | 110 | 97.4 | 81.5 | 60.3 | 118 | 128 | 115 | 130 | 131 | 133 | 145 | 132 | 129 | 122 | 116 |
| C[N+]1(C)[C@@H]2CC(OC(=O)C(O)(c3cccs3)c3cccs3)C[C@H]1[C@@H]1O[C@@H]12 (stereo partly specified) | 94.8 | 95.5 | 107 | 102 | 113 | 103 | 103 | 114 | 106 | 113 | 108 | 85.4 | 104 | 92.6 | 83 | 110 | 96.3 | 99.3 | 103 | 99.3 | 114 | 92.1 | 90.9 | 98 | 105 | 113 | 119 | 119 | 111 | 139 | 108 | 121 | 101 |
| COc1cc2ncn(-c3cc(OCc4ccccc4C(F)(F)F)c(C(N)=O)s3)c2cc1OC | 120 | 121 | 116 | 115 | 115 | 104 | 110 | 65.3 | 28.6 | 22.4 | 20.7 | 124 | 121 | 122 | 115 | 124 | 105 | 128 | 74 | 18.4 | 13.4 | 13.1 | 108 | 112 | 124 | 120 | 116 | 142 | 139 | 103 | 25.9 | 20.3 | 19.5 |
| Cc1cccc(-c2[nH]c(C(C)(C)C)nc2-c2ccc3c(c2)OCO3)n1 | 103 | 98.7 | 114 | 105 | 104 | 120 | 113 | 121 | 109 | 10.8 | 7.86 |  |  |  |  |  |  |  |  |  |  |  | 92.1 | 96.8 | 100 | 93 | 120 | 99.7 | 107 | 121 | 111 | 10.4 | 4.24 |
| O=C1CCCC(=O)C1C(=O)c1ccc(C(F)(F)F)cc1[N+](=O)[O-] | 112 | 115 | 100 | 107 | 108 | 108 | 114 | 102 | 106 | 113 | 108 | 109 | 103 | 112 | 98.4 | 109 | 97.5 | 112 | 101 | 108 | 85.9 | 86 | 105 | 104 | 110 | 110 | 127 | 106 | 111 | 129 | 113 | 115 | 102 |
| COc1cc2c(Nc3ccc(Cl)c(Cl)c3F)ncnc2cc1OC[C@@H]1C[C@@H]2CN(C)C[C@@H]2C1 | 88.5 | 78.5 | 86.2 | 91.6 | 94.5 | 94.5 | 94.4 | 91.5 | 87.8 | 40 | 3.92 |  |  |  |  |  |  |  |  |  |  |  | 88.8 | 91.6 | 110 | 103 | 121 | 91.1 | 103 | 95.5 | 93.7 | 74.7 | 3.96 |
| CC(C)[N+]1(C)C2CCC1CC(OC(=O)C(CO)c1ccccc1)C2.O.[Br-] (stereo unspecified) | 96 | 97.8 | 107 | 91.3 | 98.7 | 108 | 93.7 | 113 | 91.4 | 69.4 | 64.5 | 111 | 103 | 106 | 96.6 | 125 | 119 | 105 | 108 | 85.9 | 40.7 | 42.3 | 93.2 | 98.2 | 109 | 109 | 120 | 116 | 123 | 130 | 90.2 | 40.3 | 41.9 |

From the supplement of paper PMC11451515
